We go through ten compounds from patent US20120156139A1, “ISOTOPICALLY LABELED NEUROCHEMICAL AGENTS AND USES THEROF FOR DIAGNOSING CONDITIONS AND DISORDERS” (priority 2009, published 2012).

Format in all cases: physicochemical
Data set [1] in a line: 13C T1 inversion recovery studies of L-DOPA, dopamine and partially deuterated dopamine. To be noted: for T1 of C1 / T1 of C2 / T1 of C3: 13C at natural abundance, inversion recovery, 500 MHz scanner; for Elongation factor, T1 of C1 / Elongation factor, T1 of C2 / Elongation factor, T1 of C3: relative to dopamine HCl (A). Here is the method:
Inversion recovery studies were carried out on protonated L-DOPA and dopamine and partially deuterated dopamine a in order to determine the ^13C T1 relaxation times in these molecules. The inversion recovery studies were carried out on a 500 MHz scanner (Varian), equipped with a 5 mm double tuned ^13C/^1H probe. Carbon-13 signals were detected in these molecules at natural abundance. The number of transitions ranged between 300 to 400 per relaxation delay (t) with a total scanning time of 12 to 48 hours. Dopamine HCl and L-DOPA were obtained from Sigma-Aldrich (Israel). [1,1,2,2-D4]-Dopamine HCl, and [D3-ring, 2,2-D2]-Dopamine were obtained from Cambridge Isotope Laboratories (MA, USA).

The nature of data set [2]: T1 values of additional deuterated compounds.
A short description of data set [3]: T1 of position 2 in [1,1,2,2-D4,2-13C]-choline at various magnetic field strengths and temperatures. The settings on record: for Liquid state T1 of position 2: DNP-enhanced liquid state sample, 14.1 T. Here is the method:
The T1 of position 2 in [1,1,2,2-D4,2-^13C]-choline was further investigated at various magnetic field strengths and temperatures. The liquid state T1 was measured on a DNP-enhanced liquid state sample at 14.1 T at approx. 37° C. (T1=48±2 sec) and at higher temperatures of between about 40 to about 50° C. (T1=56±4 sec).
In addition, thermal equilibrium T1 measurement was performed at 9.4 T at 37° C. (T1=41 sec). The low field T1 of [1,1,2,2-D4,2-^13C]-choline was estimated by placing the enhanced sample in the fringe field of an unshielded 14.1 T magnet (n=2). From this experiment it was concluded that the low field T1 is long (>40 s) and that the T1 of the deuterated methylene carbon in choline is less affected by field strength.

Data set [4] can be described thus: 13C T1 inversion recovery studies of choline and deuterated cholines at 11.8 T. To be noted: for Elongation factor, T1 of C1 / Elongation factor, T1 of C2: relative to choline Cl- (A). The procedure: The data in Table 2 were obtained using a series of inversion recovery studies at 11.8 T which were carried out in order to determine the ^13C T1 relaxation times of a deuterated choline molecule and of a partially deuterated choline molecule [1,1,2,2-D4]-choline Cr. The T1 of the trimethyl amine position in the fully deuterated choline molecule was 28 sec, which represented an approximate 8 fold elongation factor compared to the native choline molecule in which the trimethyl amine positions are protonated. Inversion recovery studies were carried out on a 500 MHz scanner (Varian), equipped with a 5 mm double tuned ^13C/^1H probe. Carbon-13 signals were detected in these molecules at natural abundance. The number of transitions ranged between 300 to 400 per relaxation delay (r) with a total scanning time of 12 to 67 hours due to a relaxation delay of 130 sec. The data were fitted to the standard inversion recovery equation. The possible effect of concentration on T1 was investigated in a concentration range of 20 mM to […], no significant effect of concentration on T1 was found in this concentration range. Choline Cl^− and [1,1,2,2-D4]-Choline CU were obtained from Sigma-Aldrich (Israel). Choline-D13 Br^− (fully deuterated) was obtained from Cambridge Isotope Laboratories (MA, USA).

The mark [5] stands for this setting: 13C at natural abundance, inversion recovery, 11.8 T.

For `Cl.[2H]c1c([2H])c(C([2H])([2H])CN)c([2H])c(O)c1O` [[D3 ring,2,2-D2]-dopamine HCl], in data set [1], the “T1 of C1” value was found to be 1.0 s; the “T1 of C2” value stood at 4.4 s; the “T1 of C3” value came to 5.4 s; the “Elongation factor, T1 of C1” value is on record as 1.0. For the same compound, in data set [1], the “Elongation factor, T1 of C2” value was determined as 4.4 and the “Elongation factor, T1 of C3” value is given as 0.8.
For `[2H]C([2H])(NC(=N)N)C([2H])([2H])C([2H])([2H])[C@]([2H])(N)C(=O)O` [[2,3,3,4,4,5,5-D7]-arginine, [2,3,3,4,4,5,5-D7]-arginine: NH2C(NH)NHCD2CD2CD2CD(NH2)CO2H], the “T1 of carbons at positions 2, 3, 4, and 5” value in data set [2] was around 8 s.
Consider `Cl.[2H]C([2H])(N)C([2H])([2H])c1ccc(O)c(O)c1` [[1,1,2,2-D4]-dopamine HCl], for which, in data set [1], the “T1 of C1” value worked out at 8.7 s; the “T1 of C2” value was 9.3 s; the “T1 of C3” value is 6.3 s; the “Elongation factor, T1 of C1” value is 7.9. Also, in data set [1], the “Elongation factor, T1 of C2” value is on record as 9.3 and the “Elongation factor, T1 of C3” value was 1.0.
For the compound `Cl.NCCc1ccc(O)c(O)c1` [dopamine HCl], in data set [1], the “T1 of C1” value amounted to 1.1 s, the “T1 of C2” value turned out to be 1.0 s and the “T1 of C3” value was found to be 6.4 s.
On to `[2H]c1c([2H])c([2H])c2c(C([2H])([2H])[C@]([2H])(N)C(=O)O)c[nH]c2c1[2H]` [[D7]-L-tryptophan, [D7]-L-tryptophan: C6D4C(CD2-CD(NH2)COOH)CH—NH], for which the “T1 of position 10” value in data set [2] (dissolved in H2O and 15% D2O (54.5 mM), 11.8 T) is around 13 s.
In the case of `[2H]C([2H])(O)[13C]([2H])([2H])[N+](C)(C)C` [[1,1,2,2-D4,2-^13C]-choline], the “Thermal equilibrium T1” value in data set [3] (9.4 T, 37 °C) stood at 41 s. For the same compound, the “Liquid state T1 of position 2” value in data set [3] (about 40 to about 50 °C) came out at 56 ± 4 s; in data set [3] (approx. 37 °C), 48 ± 2 s. Also, the “Low field T1” value in data set [3] (enhanced sample in the fringe field of an unshielded 14.1 T magnet, n=2, estimated) is above 40 s.
Regarding `[2H]C([2H])(O)C([2H])([2H])[N+](C)(C)C.[Cl-]` [[1,1,2,2-D4]-choline Cl^−], in data set [4] (setting [5]), the “T1 of C1” value was found to be 29.1 s and the “T1 of C2” value amounted to 34.9 s. Further, in data set [4] (11.8 T), the “Elongation factor, T1 of C1” value is 5.6 and the “Elongation factor, T1 of C2” value stood at 7.1.
As for `C[N+](C)(C)CCO.[Cl-]` [choline Cl^−], in data set [4] (setting [5]), the “T1 of C1” value was found to be 5.2 s and the “T1 of C2” value worked out at 4.9 s.
For `N[C@@H](Cc1ccc(O)c(O)c1)C(=O)O` [L-DOPA (non deuterated), L-DOPA], in data set [1], the “T1 of C1” value is 2.3 s, the “T1 of C2” value turned out to be 2.3 s and the “T1 of C3” value was 3.9 s.
As for `[2H]C([2H])(O)C([2H])([2H])[N+](C([2H])([2H])[2H])(C([2H])([2H])[2H])C([2H])([2H])[2H].[Br-]` [[D13]-choline Br^−], in data set [4] (setting [5]), the “T1 of C1” value amounted to 32.0 s, the “T1 of C2” value worked out at 32.9 s and the “T1 of the trimethyl amine position” value amounted to 28 s. The “Elongation factor of T1 of the trimethyl amine position” value in data set [4] (compared to the native choline molecule with protonated trimethyl amine positions) was around 8 fold. Moreover, in data set [4] (11.8 T), the “Elongation factor, T1 of C1” value turned out to be 6.2 and the “Elongation factor, T1 of C2” value came out at 6.7.
